# In patent publication US7390788B2, “Peptide pharmaceutical compositions” (priority 2005, dated 2008):
# Where two headings read alike, the source gives them in different places.
# Experiments:
# nasal mucosa = settings: in vivo; cited from earlier work
# isolated nasal cilia = settings: cited from earlier work
# [1] = cited from earlier work
# [2] = patients with moderate neuro-psychological impairment; cited from earlier work
# [3] = DAPTA fibril formation / aggregation in solution by EM (Example 3); type: physicochemical
# Experimental: Preparation of DAPTA solutions. DAPTA was dissolved in water, and solutions maintained at various temperatures and times. To prepare fibrils, DAPTA was prepared at 10 mgs/mL in water and stored overnight at 4° C.
# Determining fibril formation.
# In solution, DAPTA can be shown to form ordered aggregates by EM, FTIR, and CD and dye binding. Aggregation is promoted by concentration, increased ionic strength, and reduced temperature. Although the kinetics of aggregation appear to vary, from preparation to preparation, aggregation appears to be a property associated with all batches of DAPTA examined as measured by EM.
# Fibrillization can be observed in solutions prepared in 0.9% saline (10 mg/mL) when stored at 4° C. in less than 1 hour. At room or ambient temperature, fibril formation can be observed within 48 hours, although there is variation from preparation to preparation. In distilled water, DAPTA solutions at 10 mg/ml readily form aggregates at 4 deg. C., within 2 hrs, and at room temperature, within 1-7 days.
# [4] = 6 mg/day for 12 weeks; cited from earlier work
# envelop (gp120) = settings: 1987 report; cited from earlier work
# [5] = 2 mg three times daily intranasally, cited from earlier work
# [6] = subcutaneously, cited from earlier work
# HIV BaL = type: cell-based, HIV-1; settings: dried
# Experimental: Peptide was dissolved at 5 mg/ml in water, stored at ambient temperature, ca 23-27° C., and samples tested for biological activity in an HIV infection assay.
# Inhibition of HIV infection is studied by utilizing an infection assay in which GHOST CD4 CCR5 cells are infected with HIV BaL, an R5 tropic isolate (Ruff, M R et al., 2001). Infection is detected via viral induction of the hGFP gene (green fluorescent protein) 48 hrs post-infection. Trays are measured in a plate reader to determine fluorescence intensity. All infections are performed by adding fresh culture medium containing approximately 1,000 infectious units of HIV-1 per well (96-well plates).
# Samples were then aged by storage at ambient temperature (ca 25° C.) for 14 days prior to antiviral testing. […] In FIG. 5, only the short term 6 hour sample is stored at 4° C., while the other samples are stored at 37° C.
# The peptide was dissolved in the indicated concentration of TFE in water and then shaken or agitated for 24 hrs at 37° C. The peptide was subsequently dried down, and the TFE/water mixture removed under vacuum. […] Although TFE is removed, residual traces of TFE within acceptable range for human consumption may remain.
# Inhibition of HIV infection was studied by utilizing an infection assay using GHOST CD4 as previously described by Ruff, M R et al., 2001. CCR5 cells are infected with HIV BaL, an R5 tropic isolate. Infection is detected via viral induction of the hGFP gene (green fluorescent protein) about 48 hours post-infection. Trays were measured in a plate reader to determine fluorescence intensity. All infections were performed by adding fresh culture medium containing approximately 1,000 infectious units of HIV-1 per well (96-well plates).
# HIV [7] = assay: Inhibition of HIV infectivity in vitro by stored DAPTA solutions; type: cell-based
# Experimental: Aggregation is discovered to be associated with a loss of biological activity in vitro. Typically, the recommended protocol is to have DAPTA stored at 0.1 mM solutions in water at 4° C.
# Aggregation is reduced in the presence of trifluoroethanol (TFE). TFE was selected because of its property of reducing certain types of protein-protein interactions. DAPTA was dissolved in either distilled water, or solutions containing between 60% and 100% TFE. Aggregation was evaluated by assaying inhibition of HIV infectivity, in vitro. […] Also, TFE is capable of disassociating preformed aggregates of DAPTA. Aggregates of DAPTA, formed in distilled water were disrupted by addition of TFE to 80%, as measured by EM.
# HIV [8] = settings: cited from earlier work
# [9] = Phase I, human; cited from earlier work
substance,measurement,setting,value
benzalkonium chloride [BAC],Damage to the nasal mucosa,nasal mucosa,no significant damage
same,Mucosal ciliary clearance after application,nasal mucosa,slight prolongation
same,Nasal mucosal function,nasal mucosa,no detectable effect
same,Saccharine transport time or indicators of proinflammatory effects,nasal mucosa,did not alter
same,Ciliotoxicity,isolated nasal cilia,ciliotoxic
D-ala^1-peptide T-amide [DAPTA],Patients with improved neuro-psychological performance,[1]; high dose (15 mg daily),4/5
same,Patients with improved neuro-psychological performance,[1]; low dose (1.5 mg daily),1/4
same,Cognitive and neuromotor function compared with controls,[2],improved
same,Time until fibrillization can be observed,"[3]; 0.9% saline, 10 mg/mL, 4° C.",less than 1 hour
same,Time until fibril formation can be observed,"[3]; 0.9% saline, 10 mg/mL, room or ambient temperature",≤ 48 h
same,"Effect of TFE on preformed aggregates, by EM","[3]; aggregates formed in distilled water, TFE added to 80%",disrupted
same,Time until aggregates form,"[3]; distilled water, 10 mg/ml, 4 deg. C.",≤ 2 h
same,Treatment of painful peripheral neuropathy vs placebo,[4],no statistically significant differences
same,Concentration that blocks envelop (gp120) binding and inhibits viral infectivity,envelop (gp120),10 pM
same,Neuropsychological performance vs placebo,[5]; at least four months of treatment,no difference
same,Neuropsychological improvement after adjustment for baseline CD4 count,[5],greater improvement (p=0.07)
same,Adverse drug effects,[6]; 3 to 70 weeks,No adverse drug effects were noted
same,Lower limb pain,"[6]; initial dose 10 mg daily, nine individuals",complete or subjectively significant resolution of lower limb pain
same,Percent Reduction in HIV Infection,"HIV BaL; 0.1 nM DAPTA, TFE Concentration 40 %, shaken 24 hrs at 37° C., reconstituted in water, stored about 3 days",0 ± 2%
same,Percent Reduction in HIV Infection,"HIV BaL; 0.1 nM DAPTA, TFE Concentration 60 %, shaken 24 hrs at 37° C., reconstituted in water, stored about 3 days",20 ± 4%
same,Percent Reduction in HIV Infection,"HIV BaL; 0.1 nM DAPTA, TFE Concentration 100 %, shaken 24 hrs at 37° C., reconstituted in water, stored about 3 days",98 ± 3%
same,Percent Reduction in HIV Infection,"HIV BaL; 80% TFE, shaken 12 hrs at 37 degrees Celsius, in water about three days",70 ± 4%
same,Percent Reduction in HIV Infection,"HIV BaL; 80% TFE, shaken 48 hrs at 37 degrees Celsius, in water about three days",100 ± 3%
same,Percent Reduction in HIV Infection,"HIV BaL; 80% TFE, shaken about 24 hours at 37 ° C., in water about three days",100 ± 5%
same,Percent Reduction in HIV Infection,"HIV BaL; 80% TFE, shaken about 24 hours at Room Temp., in water about three days",70 ± 6%
same,Storage time to substantial loss of activity (HIV uptake inhibition in vitro),HIV [7]; 0.1 mM solutions in water at 4° C.,about 6 weeks
same,Activity retained on storage (inhibition of HIV infectivity in vitro),HIV [7]; stored in TFE between 60% and 100% vs water,retained more activity
same,Virus levels in stored frozen plasma,HIV [8]; blind NIMH analysis,significant (p<0.04) treatment effect
same,Clinical benefits versus placebo,HIV [8]; more cognitively impaired patients,significant clinical benefits versus placebo
same,Toxicity,[9],complete lack of toxicity
